Laboratory results: US20250382332A1, “NOVEL ALPHA-FACTOR BASED PEPTIDES WITH ANTIFUNGAL ACTIVITY” (INVAIO SCIENCES, INC., priority 2024, published 2025)
Peptide text beside a SMILES is read from it.

Tested on: Botrytis cinerea (B05.10)
Assay: Resazurin antifungal assay of 180 alpha-factor peptide variants towards Botrytis (Example 2)
Assay type: cell-based
Design: key to active against Botrytis at 15 μM / active against Botrytis at 10 μM: Peptides that showed greater than 90% inhibition were considered active against Botrytis
Conditions: for Inhibition at 50 μM / Inhibition at 100 μM / Inhibition at 10 μM / Inhibition at 15 μM / Inhibition at 20 μM: % inhibition of fungal growth, Botrytis conidia, resazurin; for Inhibition at 50 μM: peptide 50 μM; for Inhibition at 100 μM: peptide 100 μM; for Inhibition at 10 μM: peptide 10 μM; for Inhibition at 15 μM / active against Botrytis at 15 μM: peptide 15 μM; for Inhibition at 20 μM: peptide 20 μM
Method in brief: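 B. cinerea B05.10 conidia (5000/well) were exposed to peptides at 100, 50, 20, 15 and 10 μM final for 24 h at 20° C. Resazurin was then added and fluorescence read at 570/620 nm. Percent growth inhibition was calculated against conidia-only wells, with four technical replicates.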

SMILES | Inhibition at 50 μM | Inhibition at 100 μM | Inhibition at 10 μM | Inhibition at 15 μM | Inhibition at 20 μM | active against Botrytis at 15 μM
CSCC[C@H](NC(=O)[C@@H]1CCCN1C(=O)[C@H](CCC(N)=O)NC(=O)CNC(=O)[C@@H]1CCCN1C(=O)[C@H](Cc1c[nH]cn1)NC(=O)[C@H](CC(C)C)NC(=O)[C@H](CCC(N)=O)NC(=O)[C@@H](NC(=O)[C@H](CO)NC(=O)[C@H](Cc1c[nH]cn1)NC(=O)[C@@H](N)Cc1c[nH]c2ccccc12)C(C)C)C(=O)N[C@@H](Cc1ccc(O)cc1)C(=O)O [compound 174] (H-WHSVQLHPGQPMY-OH; N-terminus and C-terminus assumed) | <90% | <90% | – | – | – | –
CSCC[C@H](NC(=O)[C@@H]1CCCN1C(=O)[C@H](CCC(N)=O)NC(=O)CNC(=O)[C@@H]1CCCN1C(=O)[C@H](CCCCN)NC(=O)[C@H](CC(C)C)NC(=O)[C@H](CCC(N)=O)NC(=O)CNC(=O)[C@H](CO)NC(=O)[C@H](CCC(N)=O)NC(=O)[C@@H](N)Cc1c[nH]c2ccccc12)C(=O)N[C@@H](Cc1ccc(O)cc1)C(=O)O [compound 117] (H-WQSGQLKPGQPMY-OH; N-terminus and C-terminus assumed) | <90% | <90% | – | – | – | –
CSCC[C@H](NC(=O)[C@@H]1CCCN1C(=O)[C@H](CCC(N)=O)NC(=O)CNC(=O)[C@@H]1CCCN1C(=O)[C@H](Cc1c[nH]c2ccccc12)NC(=O)[C@H](CC(C)C)NC(=O)[C@H](CCC(=O)O)NC(=O)[C@H](CC(C)C)NC(=O)[C@H](CC(=O)O)NC(=O)[C@H](Cc1c[nH]cn1)NC(=O)[C@@H](N)CCCCN)C(=O)N[C@@H](Cc1ccc(O)cc1)C(=O)O [compound 47] (H-KHDLELWPGQPMY-OH; N-terminus and C-terminus assumed) | <90% | <90% | – | – | – | –
CSCC[C@H](NC(=O)[C@@H]1CCCN1C(=O)[C@H](CCC(N)=O)NC(=O)CNC(=O)[C@@H]1CCCN1C(=O)[C@H](CCCCN)NC(=O)[C@H](Cc1ccccc1)NC(=O)[C@H](CCCNC(=N)N)NC(=O)[C@H](CC(C)C)NC(=O)[C@@H](NC(=O)[C@H](Cc1c[nH]cn1)NC(=O)[C@@H](N)CCCCN)C(C)C)C(=O)N[C@@H](Cc1ccc(O)cc1)C(=O)O [compound 12] (H-KHVLRFKPGQPMY-OH; N-terminus and C-terminus assumed) | 100% | 100% | <90% | 98.79% | 99.94% | active
CC[C@H](C)[C@H](NC(=O)[C@H](Cc1c[nH]c2ccccc12)NC(=O)[C@H](CCCCN)NC(=O)[C@@H](N)CCCCN)C(=O)N[C@@H](CCC(N)=O)C(=O)N[C@@H](CC(C)C)C(=O)N[C@@H](CCCCN)C(=O)N1CCC[C@H]1C(=O)NCC(=O)N[C@@H](CCC(=O)O)C(=O)N1CCC[C@H]1C(=O)N[C@@H](CCSC)C(=O)N[C@@H](Cc1ccc(O)cc1)C(=O)O [compound 175] (H-KKWIQLKPGEPMY-OH; N-terminus and C-terminus assumed) | <90% | <90% | – | – | – | –
CSCC[C@H](NC(=O)[C@H](CO)NC(=O)[C@H](CCC(N)=O)NC(=O)CNC(=O)[C@H](CCCNC(=N)N)NC(=O)[C@H](Cc1c[nH]c2ccccc12)NC(=O)[C@H](Cc1ccccc1)NC(=O)[C@H](CCC(N)=O)NC(=O)[C@H](CC(C)C)NC(=O)[C@H](Cc1c[nH]c2ccccc12)NC(=O)[C@H](Cc1c[nH]cn1)NC(=O)[C@@H](N)Cc1c[nH]c2ccccc12)C(=O)N[C@@H](Cc1ccc(O)cc1)C(=O)O [compound 1] (H-WHWLQFWRGQSMY-OH; N-terminus and C-terminus assumed) | 100% | 100% | <90% | – | <90% | –
CSCC[C@H](NC(=O)[C@@H]1CCCN1C(=O)[C@H](CCC(N)=O)NC(=O)CNC(=O)[C@@H]1CCCN1C(=O)[C@H](CCCCN)NC(=O)[C@H](Cc1ccccc1)NC(=O)[C@H](CCCCN)NC(=O)[C@H](CC(C)C)NC(=O)[C@H](Cc1ccc(O)cc1)NC(=O)[C@H](Cc1c[nH]cn1)NC(=O)[C@@H](N)CCCCN)C(=O)N[C@@H](Cc1ccc(O)cc1)C(=O)O [compound 72] (H-KHYLKFKPGQPMY-OH; N-terminus and C-terminus assumed) | 100% | 100% | <90% | 98.60% | 100% | active
CSCC[C@H](NC(=O)[C@@H]1CCCN1C(=O)[C@H](C)NC(=O)CNC(=O)[C@H](Cc1c[nH]c2ccccc12)NC(=O)[C@H](CCCCN)NC(=O)[C@H](CC(C)C)NC(=O)[C@@H](NC(=O)[C@@H](NC(=O)[C@H](Cc1c[nH]c2ccccc12)NC(=O)[C@H](Cc1c[nH]cn1)NC(=O)[C@@H](N)CCCCN)C(C)C)[C@@H](C)O)C(=O)N[C@@H](Cc1ccc(O)cc1)C(=O)O [compound 3] (H-KHWVTLKWGAPMY-OH; N-terminus and C-terminus assumed) | 100% | 100% | <90% | <90% | 100.61% | –
CC[C@H](C)[C@H](NC(=O)[C@H](CO)NC(=O)[C@H](CCCCN)NC(=O)[C@@H](N)Cc1c[nH]c2ccccc12)C(=O)N[C@@H](CC(N)=O)C(=O)N[C@@H](Cc1ccccc1)C(=O)N[C@@H](CCCCN)C(=O)N1CCC[C@H]1C(=O)NCC(=O)N[C@@H](CCC(N)=O)C(=O)N1CCC[C@H]1C(=O)N[C@@H](CCSC)C(=O)N[C@@H](Cc1ccc(O)cc1)C(=O)O [compound 127] (H-WKSINFKPGQPMY-OH; N-terminus and C-terminus assumed) | <90% | <90% | – | – | – | –
CSCC[C@H](NC(=O)CNC(=O)[C@H](CCC(N)=O)NC(=O)CNC(=O)[C@@H](NC(=O)[C@H](CCCCN)NC(=O)[C@H](CC(C)C)NC(=O)[C@H](CC(N)=O)NC(=O)[C@@H](NC(=O)[C@H](Cc1c[nH]c2ccccc12)NC(=O)[C@H](Cc1c[nH]cn1)NC(=O)[C@@H]1CCCN1)C(C)C)[C@@H](C)O)C(=O)N[C@@H](Cc1ccc(O)cc1)C(=O)O [compound 44] (H-PHWVNLKTGQGMY-OH; N-terminus and C-terminus assumed) | <90% | <90% | – | – | – | –
CC[C@H](C)[C@H](NC(=O)[C@H](CO)NC(=O)[C@H](CC(C)C)NC(=O)[C@H](Cc1c[nH]c2ccccc12)NC(=O)[C@H](Cc1c[nH]cn1)NC(=O)[C@@H](N)Cc1c[nH]c2ccccc12)C(=O)N[C@@H](CCCCN)C(=O)N1CCC[C@H]1C(=O)NCC(=O)N[C@@H](CCC(N)=O)C(=O)NCC(=O)N[C@@H](CCSC)C(=O)N[C@@H](Cc1ccc(O)cc1)C(=O)O [compound 110] (H-WHWLSIKPGQGMY-OH; N-terminus and C-terminus assumed) | <90% | 97.94% | – | – | – | –
